Experimental data reported in ChEMBL document CHEMBL5390253, “Discovery of Selective and Potent Macrocyclic CDK9 Inhibitors for the Treatment of Osimertinib-Resistant Non-Small-Cell Lung Cancer” (J Med Chem, 2023).

What was measured:
NCI-H1299 = test: Antiproliferative activity against human NCI-H1299 cells incubated for 72 hrs by MTT assay; format: functional, cell-based; details: NCI-H1299, 72 h
[1] = Toxicity in ICR mouse assessed as effect on physical appearance at 1000 mg/kg, po measured for 8 to 9 days; format: organism-based; details: in vivo, time 8-9 day
[2] = Toxicity in ICR mouse assessed as abnormalities in liver at 1000 mg/kg, po measured after 9 days by H and E staining based analysis; format: organism-based; details: in vivo, 216 h, time 9 day
NCI-H1975 = test: Downregulation of Bcl-2 level in human Osimertinib-resistant NCI-H1975 cell measured after 16 hrs by Western blot analysis; format: functional, cell-based; details: dose 125-2000 nM
[3] = system: Osimertinib-resistant HCC827AR cell; test: Inhibition of cell growth in 3D-cultured human Osimertinib-resistant HCC827 cell by DAPI and PI staining based analysis; format: functional; details: dose 0.049-3.125 µM
[4] = Antiproliferative activity against 3D-cultured human Osimertinib-resistant HCC827 cell incubated for 72 hrs by MTT assay; format: functional, cell-based; details: Osimertinib-resistant HCC827AR cell
[5] = Induction of apoptosis in human Osimertinib-resistant NCI-H1975 cell assessed as necrotic cells at 125 nM measured after 16 hrs by Annexin V-FITC and PI staining based analysis (reference value: 0.50%); format: functional
[6] = Toxicity in ICR mouse assessed as abnormalities in kidney at 1000 mg/kg, po measured after 9 days by H and E staining based analysis; format: organism-based; details: in vivo, 216 h, time 9 day
[7] = Toxicity in ICR mouse assessed as abnormalities in spleen at 1000 mg/kg, po measured after 9 days by H and E staining based analysis; format: organism-based; details: in vivo, 216 h, time 9 day
[8] = biological target: CDK1/Cyclin A (Homo sapiens) (UniProt P06493+P20248); test: Inhibition of CDK1/Cyclin A2 (unknown origin) at 200 nM preincubated for 10 mins followed by substrate addition and measured after 60 mins in presence of ATP by ADP-Glo reagent based assay relative to control; format: protein-complex assay; details: time 70.0 min
Sequence of CDK1/Cyclin A (Homo sapiens) (P06493 whole entry, looked up): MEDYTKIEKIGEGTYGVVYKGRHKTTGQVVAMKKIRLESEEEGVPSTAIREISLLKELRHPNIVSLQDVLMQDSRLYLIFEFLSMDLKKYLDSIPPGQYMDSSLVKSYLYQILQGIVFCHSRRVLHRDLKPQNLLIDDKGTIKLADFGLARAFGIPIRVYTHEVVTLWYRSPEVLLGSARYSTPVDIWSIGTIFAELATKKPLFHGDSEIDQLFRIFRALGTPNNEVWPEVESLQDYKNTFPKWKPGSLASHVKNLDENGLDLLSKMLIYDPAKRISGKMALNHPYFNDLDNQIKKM
Sequence of CDK1/Cyclin A (Homo sapiens) (P20248 whole entry, looked up): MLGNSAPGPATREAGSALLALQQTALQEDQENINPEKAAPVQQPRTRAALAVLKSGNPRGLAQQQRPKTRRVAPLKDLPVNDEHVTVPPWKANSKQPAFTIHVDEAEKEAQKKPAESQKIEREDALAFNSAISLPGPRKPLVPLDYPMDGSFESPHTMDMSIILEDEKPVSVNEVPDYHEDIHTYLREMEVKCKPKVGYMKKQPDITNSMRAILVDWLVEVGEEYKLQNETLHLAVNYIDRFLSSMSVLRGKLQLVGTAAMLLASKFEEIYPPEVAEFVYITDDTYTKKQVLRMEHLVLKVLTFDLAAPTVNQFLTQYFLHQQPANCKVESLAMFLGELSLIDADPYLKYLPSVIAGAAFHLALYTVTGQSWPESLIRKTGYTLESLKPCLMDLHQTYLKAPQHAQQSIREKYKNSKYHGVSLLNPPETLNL

[9] = biological target: Dual specificity tyrosine-phosphorylation-regulated kinase 1A (Homo sapiens) (UniProt Q13627); test: Inhibition of DYRK1A (unknown origin) at 100 nM preincubated for 10 mins followed by substrate addition and measured after 60 mins in presence of ATP by ADP-Glo reagent based assay relative to control; details: time 70.0 min
[10] = Toxicity in ICR mouse assessed as morphological changes in lung at 1000 mg/kg, po measured after 9 days by H and E staining based analysis; format: organism-based; details: in vivo, 216 h, time 9 day
[11] = Induction of apoptosis in human Osimertinib-resistant NCI-H1975 cell assessed as necrotic cells at 125 nM measured after 16 hrs in presence of osimertinib by Annexin V-FITC and PI staining based analysis (reference value: 0.50%); format: functional
[12] = biological target: CDK3/Cyclin E (Homo sapiens) (UniProt P24864+Q00526); test: Inhibition of CDK3/Cyclin E1 (unknown origin) at 200 nM preincubated for 10 mins followed by substrate addition and measured after 60 mins in presence of ATP by ADP-Glo reagent based assay relative to control; format: protein-complex assay; details: time 70.0 min
Sequence of CDK3/Cyclin E (Homo sapiens) (P24864 whole entry, looked up): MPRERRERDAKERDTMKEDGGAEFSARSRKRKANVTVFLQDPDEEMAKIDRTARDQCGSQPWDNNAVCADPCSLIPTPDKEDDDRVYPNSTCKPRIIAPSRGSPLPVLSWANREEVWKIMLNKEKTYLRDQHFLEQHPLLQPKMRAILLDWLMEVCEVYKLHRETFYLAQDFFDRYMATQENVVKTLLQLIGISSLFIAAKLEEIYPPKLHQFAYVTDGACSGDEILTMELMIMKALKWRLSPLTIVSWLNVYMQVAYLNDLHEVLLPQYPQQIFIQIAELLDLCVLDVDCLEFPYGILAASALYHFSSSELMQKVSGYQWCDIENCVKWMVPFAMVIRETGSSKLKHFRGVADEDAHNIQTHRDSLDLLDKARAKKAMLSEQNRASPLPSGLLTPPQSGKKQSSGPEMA
Sequence of CDK3/Cyclin E (Homo sapiens) (Q00526 whole entry, looked up): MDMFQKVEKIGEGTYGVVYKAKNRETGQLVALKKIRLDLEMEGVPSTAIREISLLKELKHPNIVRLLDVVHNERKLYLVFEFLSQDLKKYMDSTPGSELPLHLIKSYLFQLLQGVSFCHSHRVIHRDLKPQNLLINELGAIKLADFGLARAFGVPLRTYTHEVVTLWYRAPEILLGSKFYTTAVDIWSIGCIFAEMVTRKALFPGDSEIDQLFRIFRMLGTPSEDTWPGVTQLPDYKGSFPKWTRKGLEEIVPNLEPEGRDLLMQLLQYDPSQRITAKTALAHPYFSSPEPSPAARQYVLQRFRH

[13] = Toxicity in ICR mouse assessed as effect on physical appearance at 100 mg/kg, iv measured for 8 to 9 days; format: organism-based; details: in vivo, time 8-9 day
[14] = Induction of apoptosis in human Osimertinib-resistant NCI-H1975 cell assessed as early apoptotic cells at 2000 nM measured after 16 hrs by Annexin V-FITC and PI staining based analysis (reference value: 1.78%); format: functional

Structure (SMILES): O=C(NCCN1CCOCC1)c1ccc2cc1OCCCCCCOc1cc(ccc1F)-c1nc(ncc1F)N2
- IC50 (NCI-H1299): 85 nM
- Activity [1]: Non-Toxic
- Activity [2]: Non-Toxic
- Activity (NCI-H1975): Dose-Dependent Effect
- inhibition [3]: Dose-Dependent Effect
- IC50 [4]: 330 nM
- Activity [5]: 3.25%
- Activity [6]: Non-Toxic
- Activity [7]: Non-Toxic
- inhibition [8]: 15.7%
- inhibition [9]: 14.3%
- Activity [10]: Non-Toxic
- Activity [11]: 0.27%
- inhibition [12]: 29.6%
- Activity [13]: Non-Toxic
- Activity [14]: 18.9%
